Results: PMC10914734 (Signal Transduction and Targeted Therapy, 2024)
Where two headings read alike, the source gives them in different places.

What was measured:
[1] = test system: HCoV-229E PsV; test: microbe, parasite or virus in culture; format: cell-based; settings: Human coronavirus 229E, Huh-7, read-out: EC50, HCoV-229E PsV
[2] = test system: HCoV-229E; test: microbe, parasite or virus in culture; format: cell-based; settings: Human coronavirus 229E, Huh-7, read-out: EC50, authentic HCoV-229E
[3] = test system: B.1.351 (Beta); test: microbe, parasite or virus in culture; format: cell-based; settings: Severe acute respiratory syndrome coronavirus 2, Vero C1008, read-out: EC50, SARS-CoV-2 B.1.351 (Beta)
[4] = biological target: Human CTSX (Homo sapiens, UniProt Q9UBR2); test: biochemical
[5] = test system: Human Elastase; test: Protease panel, elastase inhibition; format: biochemical; settings: at a concentration of 20 μM
[6] = test system: Human Trypsin; test: Protease panel, trypsin inhibition; format: biochemical; settings: at a concentration of 20 μM
[7] = biological target: SARS-CoV-2 RdRp (Severe acute respiratory syndrome coronavirus 2, UniProt P0DTD1); test: biochemical
[8] = biological target: SARS-CoV-2 PL^pro (Severe acute respiratory syndrome coronavirus 2, UniProt P0DTD1); test: biochemical; format: biochemical; settings: at a concentration of 20 μM; for inhibition at 20 µM: read-out: Inhibition rate, SARS-CoV-2 PL^pro
[9] = Pharmacokinetics in dogs; format: in vivo; settings: for AUC(0-t) / clearance / half-life / AUC(0-inf) / MRT inf / Cmax / Tmax / bioavailability: male, Beagle, dog, plasma; for AUC(0-inf): read-out: AUCINF_obs; for MRT inf: read-out: MRTINF_obs
Experimental: Three groups of male Beagle dogs weighing 9 to 12 kg (2 animals per group) were intravenously (1 mg/kg), subcutaneously (1 mg/kg) and orally (5 mg/kg) dosed 14a in a vehicle consisting of 5% dimethyl sulfoxide, 7.5% Kolliphor HS 15 and 87.5% saline (volume ratio). Serial blood samples were collected at 0.083, 0.25, 0.75, 2.0, 4.0, 6.0, 8.0 and 24.0 h for the intravenous and […] groups and 0.25, 0.5, 1.0, 2.0, 4.0, 6.0, 8.0 and 24.0 h for the oral group after dose administration. Two groups of male Beagle dogs weighing 9 to 12 kg (3 animals per group) were intravenously (1 mg/kg) and subcutaneously (1 mg/kg) dosed 14b in a vehicle consisting of 5% dimethyl sulfoxide, 5% ethanol, 40% polyethylene glycol 400 and 50% saline (volume ratio). Serial blood samples were collected at 0.083, 0.25, 0.50, 1.00, 2.00, 4.00, 8.00 and 24.0 h after dose administration. A group of 3 male Beagle dogs weighing 9 to 12 kg was administered an oral dose of 5 mg/kg 14b in a vehicle consisting of 5% dimethyl sulfoxide and 95% hydroxypropyl methyl cellulose solution (0.5% hydroxypropyl methyl cellulose in deionized water in weight ratio) (volume ratio). Serial blood samples were collected at 0.25, 0.50, 1.00, 2.00, 4.00, 8.00 and 24.0 h after dose administration. All blood samples were obtained by centrifugation and stored at -20 °C until analysis.
Plasma compound concentrations were obtained through HPLC-MS/MS, and the pharmacokinetics parameters were analyzed by Phoenix WinNonlin 7.0. The following parameters were determined: Cmax (maximal concentration of drug in plasma), AUClast or AUCINF_obs (area under the concentration curve from the time of dosing to the last measurable concentration or from the time of dosing to infinity, respectively). Tmax (time of maximum observed concentration), T1/2 (half-life of elimination), MRTINF_obs (mean residence time extrapolated to infinity for a substance administered by indicated dosing using observed last concentration), CL (total body clearance), Vss (volume of distribution at steady state) and F (absolute bioavailability, F = (AUCx × Di.v.)/( AUCi.v. × Dx) × 100%, where x is i.p., s.c. or p.o., and AUC is AUCINF_obs).The pharmacokinetic parameters were analyzed by Phoenix WinNonlin 7.0.

[10] = test system: SARS-CoV-2-S-mediated cell-cell fusion; test: SARS-CoV-2-S-mediated cell-cell fusion assay; format: cell-based
[11] = test system: LPS-induced acute pulmonary inflammation; test: Mouse model of LPS-induced acute pulmonary inflammation; format: in vivo; settings: 100 mg/kg intraperitoneal, 24 h after LPS induction; for Expression levels of inflammatory cytokines (IL-1β, IL-6, TNFα) and chemokines (CCL3, CSF3, CXCL10) in the lung tissues: mice
Experimental: C57BL/6 mice were obtained from Beijing HFK Bioscience Co., Ltd. (Beijing, China). Animals 6–8 weeks of age were used for the studies and were maintained with free access to pellet food and water in plastic cages at 21 ± 2 °C and kept on a 12 h light/dark cycle. Mice were randomly divided into four groups, each group containing eight mice. The mice were intraperitoneally administered with 100 mg/kg of 14a or 100 mg/kg of 14b or vehicle control 1 h prior to LPS challenge. The compounds were dissolved in solvent containing 5% dimethyl sulfoxide, 5% ethanol, 40% polyethylene glycol 400 and 50% saline (volume ratio). The mice were anesthetized by Zoletil 50. Then mice in the normal group were intranasally inoculated with 20 μL normal saline, and mice in the LPS challenge group were intranasally inoculated with 20 μL (5 μg/μL) LPS to induce pneumonia. At 12 h post-induction, the mice were again intraperitoneally administered with 100 mg/kg of 14a or 100 mg/kg of 14b or vehicle control. Twenty-four hours later, mice were euthanized, and the lung tissues were harvested for further study.
RNA isolation, cDNA synthesis, and RT-qPCR. Total RNA was isolated from lung tissues using RNA extraction reagent (Vazyme, R401-01). cDNA was synthesized using the HiScript II Q RT SuperMix (Vazyme, R223-01), according to the manufacturer’s instructions. RT-qPCR was performed using ChamQ SYBR qPCR Master Mix (Vazyme, Q331-02) in the CFX96TM Real Time PCR Detection System (Bio-Rad, Shanghai, China). The profile of thermal cycling consisted of initial denaturation at 95 °C for 30 s, 40 cycles at 95 °C for 5 s and 60 °C for 30 s. All primer sequences used in this study are listed in Supplementary Table S5.
Hematoxylin and eosin (H&E) staining. Lung tissue samples were fixed in 4% paraformaldehyde and embedded in paraffin (Thermo Scientific, 8331). […] was sectioned (5 μm) for H&E staining, and the stained sections were analyzed by a pathologist using a light microscope (Olympus, Tokyo, Japan). Lung injury was evaluated based on histological features, including alveolar septal thickening and inflammatory cell infiltration.

Sequence of Human CTSX (Q9UBR2 62-303): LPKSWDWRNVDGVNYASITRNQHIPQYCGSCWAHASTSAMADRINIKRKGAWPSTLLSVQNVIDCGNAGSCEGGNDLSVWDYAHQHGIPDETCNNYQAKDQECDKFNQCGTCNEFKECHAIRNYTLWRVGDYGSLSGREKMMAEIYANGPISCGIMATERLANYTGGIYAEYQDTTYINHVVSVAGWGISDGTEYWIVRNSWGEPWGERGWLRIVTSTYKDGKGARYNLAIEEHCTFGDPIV

SMILES | EC50 [1] | EC50 [2] | EC50 [3] | Inhibition rate, Human Elastase [5] | Inhibition rate, Human Trypsin [6] | IC50 [7] | Inhibitory activity against papain-like protease (PL^pro) (in words) [8] | inhibition at 20 µM [8] | Vss_obs ([9]; i.v. (1 mg/kg)) | AUC(0-t) ([9]; iv, i.v. (1 mg/kg)) | clearance ([9]; iv, i.v. (1 mg/kg)) | half-life ([9]; iv, i.v. (1 mg/kg)) | AUC(0-inf) ([9]; iv, i.v. (1 mg/kg)) | MRT inf ([9]; iv, i.v. (1 mg/kg)) | AUC(0-t) ([9]; po, p.o. (5 mg/kg)) | Cmax ([9]; po, p.o. (5 mg/kg)) | Tmax ([9]; po, p.o. (5 mg/kg)) | bioavailability ([9]; po, p.o. (5 mg/kg)) | half-life ([9]; po, p.o. (5 mg/kg)) | AUC(0-inf) ([9]; po, p.o. (5 mg/kg)) | also measured
O=C(NCc1ccccc1)C(=O)[C@H](C[C@@H]1CCCNC1=O)NC(=O)[C@H](Cc1ccc(F)cc1)NC(=O)c1cc2ccccc2o1 [14a, N-((S)-1-(((S)-4-(benzylamino)-3,4-dioxo-1-((S)-2-oxopiperidin-3-yl)butan-2-yl)amino)-3-(4-fluorophenyl)-1-oxopropan-2-yl)benzofuran-2-carboxamide] | 0.0188 ± 0.00418 µM | 0.019 ± 0.00417 µM | 0.162 ± 0.0053 µM | 5 ± 1% | 3 ± 1% | 8.02 ± 0.04 µM | no inhibitory activity | 3 ± 2% | 1.05 L/kg | 732 ng·h/mL | 24.4 mL/min/kg | 1.04 h | 735 ng·h/mL | 0.74 h | 351 ng·h/mL | 154 ng/mL | 0.75 h | 10% | 1.33 h | 357 ng·h/mL | IC50 [4]: 0.722 ± 0.108 µM; MRT inf ([9]; po, p.o. (5 mg/kg)): 1.86 h; AUC(0-t) ([9]; sc, s.c. (1 mg/kg)): 881 ng·h/mL; Cmax ([9]; sc, s.c. (1 mg/kg)): 116 ng/mL; Tmax ([9]; sc, s.c. (1 mg/kg)): 0.5 h; bioavailability ([9]; sc, s.c. (1 mg/kg)): 120%; half-life ([9]; sc, s.c. (1 mg/kg)): 3.96 h; AUC(0-inf) ([9]; sc, s.c. (1 mg/kg)): 893 ng·h/mL; MRT inf ([9]; sc, s.c. (1 mg/kg)): 5.14 h; Effect on SARS-CoV-2-S-mediated cell-cell fusion [10]: no effect; Lung histopathology (inflammatory cell infiltration, alveolar septal thickening) compared with vehicle-treated mice [11]: reduced inflammatory cell infiltration and alveolar septal thickening; Expression levels of inflammatory cytokines (IL-1β, IL-6, TNFα) and chemokines (CCL3, CSF3, CXCL10) in the lung tissues [11]: reduced
O=C(NCc1ccccc1)C(=O)[C@H](C[C@@H]1CCCNC1=O)NC(=O)[C@H](CC1CCCCC1)NC(=O)c1cc2ccccc2o1 [14b, N-((S)-1-(((S)-4-(benzylamino)-3,4-dioxo-1-((S)-2-oxopiperidin-3-yl)butan-2-yl)amino)-3-cyclohexyl-1-oxopropan-2-yl)benzofuran-2-carboxamide] | 0.0131 ± 0.00626 µM | 0.0206 ± 0.00819 µM | 0.0581 ± 0.00107 µM | 2 ± 2% | 1 ± 1% | 3.21 ± 0.25 µM | no inhibitory activity | 8 ± 1% | 1.59 ± 0.557 L/kg | 544 ± 148 ng·h/mL | 31.9 ± 7.8 mL/min/kg | 1.07 ± 0.29 h | 546 ± 148 ng·h/mL | 0.82 ± 0.11 h | 271 ± 166 ng·h/mL | 235 ± 173 ng/mL | 0.58 ± 0.38 h | 10% | 2 ± 0.85 h | 283 ng·h/mL | IC50 ([4]; read-out: IC50, Human CTSX): 1.31 µM; MRT inf ([9]; po, p.o. (5 mg/kg)): 2.19 ± 0.86 h; AUC(0-t) ([9]; sc, s.c. (1 mg/kg)): 948 ± 46 ng·h/mL; Cmax ([9]; sc, s.c. (1 mg/kg)): 151 ± 36 ng/mL; Tmax ([9]; sc, s.c. (1 mg/kg)): 2.08 ± 1.88 h; bioavailability ([9]; sc, s.c. (1 mg/kg)): 178%; half-life ([9]; sc, s.c. (1 mg/kg)): 3.19 ± 1.57 h; AUC(0-inf) ([9]; sc, s.c. (1 mg/kg)): 973 ± 54 ng·h/mL; MRT inf ([9]; sc, s.c. (1 mg/kg)): 4.69 ± 1.25 h; Effect on SARS-CoV-2-S-mediated cell-cell fusion [10]: no effect; Lung histopathology (inflammatory cell infiltration, alveolar septal thickening) compared with vehicle-treated mice [11]: reduced inflammatory cell infiltration and alveolar septal thickening; Expression levels of inflammatory cytokines (IL-1β, IL-6, TNFα) and chemokines (CCL3, CSF3, CXCL10) in the lung tissues [11]: reduced
